Test results as given in patent US10364222B2, “Cyclic amine derivative and medical use thereof” (Toray Industries, Inc., priority 2016, dated 2019).

Assays:
[1] = test system: IL-17 production in mouse splenocytes; assay: Suppressive effect on IL-17 production by IL-23 stimulation in mouse splenocytes; type: cell-based; conditions: Splenocyte, 72 h, at 5 μmol/L of the test compound, 10 ng/mL human IL-23, 3 days, read-out: IL-17 production inhibition rate (%)
Protocol: Using mouse splenocytes, the suppressive effect of the cyclic amine derivative (I) or a pharmacologically acceptable salt thereof on IL-17 production by IL-23 stimulation was evaluated by a partially modified method mentioned in The Journal of Biological Chemistry, 2003, Vol. 278, No. 3, p. 1910-1914.
A single cell suspension was prepared from the spleen of C57BL/6J mice (male, 7 to 23 weeks old) (Charles River Laboratories Japan, Inc.) and splenocytes were prepared using Histopaque-1083 (Sigma-Aldrich Japan). The culture medium was used by adding 10% FBS (Gibco), 50 U/mL of penicillin 50 μg/mL of streptomycin (Gibco), 50 μmol/L of 2-mercaptoethanol (Gibco), and 100 U/mL of human IL-2 (Cell Science & Technology Institute, Inc.) to RPMI1640 medium (Gibco). The test compound was dissolved in DMSO and then diluted with the culture medium to have a final concentration of DMSO of 0.1% before use. Splenocytes (3×10^5 cells/well) prepared in the culture medium were seeded in wells of a 96-well flat-bottom plate (Corning Incorporated), the test compound and 10 ng/mL of human IL-23 (R & D systems, Inc.) were added thereto, and the cells were cultured at 37° C. under 5% CO2 for 3 days. A well without addition of human IL-23 and without addition of the test compound and a well with addition of human IL-23 and without addition of the test compound were prepared. After completion of the culture, the culture supernatant was collected and the IL-17 production amount in the supernatant was determined by ELISA method (R & D systems, Inc.).
The IL-17 production inhibition rate (%) was calculated from Formula 2. IL-17 production inhibition rate(%)=(1−((IL-17 production amount with addition of IL-23 and with addition of the test compound)−(IL-17 production amount without addition of IL-23 and without addition of the test compound))/((IL-17 production amount with addition of IL-23 and without addition of the test compound)−(IL-17 production amount without addition of IL-23 and without addition of the test compound)))×100 Formula 2

[2] = molecular target: T1, ligand-binding domain of RORγ (RORγ-LBD) (Homo sapiens, UniProt P51449); assay: Inhibitory effect on RORγ-coactivator binding (LanthaScreen TR-FRET RORγ Coactivator Assay); conditions: at 33 μmol/L of the test compound; read-out: RORγ-coactivator binding inhibition rate (%)
T1 construct: purchased Invitrogen
T1 sequence (P51449 269-508 limits assumed): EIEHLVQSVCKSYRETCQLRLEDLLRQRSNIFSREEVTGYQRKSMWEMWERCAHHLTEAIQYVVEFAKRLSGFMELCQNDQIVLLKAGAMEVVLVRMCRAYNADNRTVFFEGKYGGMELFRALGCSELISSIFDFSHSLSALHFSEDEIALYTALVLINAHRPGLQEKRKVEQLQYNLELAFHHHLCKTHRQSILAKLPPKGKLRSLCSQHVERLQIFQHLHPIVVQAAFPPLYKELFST
Protocol: The inhibitory effect of the cyclic amine derivative (I) or a pharmacologically acceptable salt thereof on the binding between a ligand-binding domain of RORγ (hereinafter referred to as RORγ-LBD) and a coactivator was evaluated using Invitrogen's LanthaScreen™TR-FRET Retinoid-Related Orphan Receptor (ROR) gamma Coactivator Assay kit utilizing time-resolved fluorescence energy transfer (TR-FRET).
The test compound was dissolved in DMSO and diluted with TR-FRET Coregulator Buffer D (Invitrogen) containing 5 mmol/L of DTT to have a final DMSO concentration of 1% before use. To each well of a 384-well black plate (Corning Inc.), 4 nmol/L of GST-fused RORγ-LBD (Invitrogen) diluted with the buffer mentioned above and the test compound were added. A well without addition of the test compound and without addition of GST-fused RORγ-LBD (background) and a well without addition of the test compound and with addition of GST-fused RORγ-LBD (control) were prepared. Next, 150 nmol/L of fluorescein-labeled TRAP220/DRIP-2 (Invitrogen) diluted with the buffer mentioned above and 32 nmol/L of terbium-labeled anti-GST antibody (Invitrogen) were added to each well. After incubating the plate at room temperature for 16 to 24 hours, the fluorescence at 495 nm and 520 nm when excited at 320 nm was measured for each well and the ratio (fluorescence value at 520 nm/fluorescence value at 495 nm) was calculated.
The fold change with addition of the test compound (ratio with addition of the test compound/ratio of the background), the fold change of the control (ratio of the control/ratio of the background), and the fold change of the background (ratio of the background/ratio of the background) were calculated, and then the inhibition rate of binding between RORγ-LBD and a coactivator (hereinafter referred to as RORγ-coactivator binding inhibition rate) (%) was calculated from Formula 1: RORγ-coactivator binding inhibition rate(%)=(1−((Fold change with addition of the test compound)−(Fold change of the background))/((Fold change of the control)−(Fold change of the background)))×100 Formula 1

SMILES | inhibition at 33 µM [2] [%] | inhibition at 5 µM [1] [%]
O=C(Nc1ccc(-c2ccccc2OC(F)(F)F)c(Cl)c1)C1CCCCN1C(=O)CCO (stereo not shown) [Example 42, N-(2-chloro-2′-(trifluoromethoxy)-[1,1′-biphenyl]-4-yl)-1-(3-hydroxypropanoyl)piperidine-2-carboxamide] | 92.8 | 99.8
O=CN1CCCCC1C(=O)Nc1ccc(-c2ccccc2OC(F)(F)F)c(Cl)c1 (stereo not shown) [Example 16, N-(2-chloro-2′-(trifluoromethoxy)-[1,1′-biphenyl]-4-yl)-1-formylpiperidine-2-carboxamide] | 99.3 | 98
NC(=O)N1CCCCC1C(=O)Nc1ccc(-c2ccccc2OC(F)(F)F)c(Cl)c1 (stereo not shown) [Example 17, N^2-(2-chloro-2′-(trifluoromethoxy)-[1,1′-biphenyl]-4-yl)piperidine-1,2-dicarboxamide] | 93.8 | 91.8
CS(=O)(=O)CCC(=O)N1CCCCC1C(=O)Nc1ccc(-c2ccccc2OC(F)(F)F)c(Cl)c1 (stereo not shown) [Example 40, N-(2-chloro-2′-(trifluoromethoxy)-[1,1′-biphenyl]-4-yl)-1-(3-(methylsulfonyl)propanoyl)piperidine-2-carboxamide] | 98.7 | 98.2
CN(CC(=O)N1CCCCC1C(=O)Nc1ccc(-c2ccccc2OC(F)(F)F)c(Cl)c1)S(C)(=O)=O (stereo not shown) [Example 13, N-(2-chloro-2′-(trifluoromethoxy)-[1,1′-biphenyl]-4-yl)-1-(2-(N-methylmethylsulfonamide)acetyl)piperidine-2-carboxamide] | 101 | 98.2
CCC(=O)N1CCCCC1C(=O)Nc1ccc(-c2ccccc2OC(F)(F)F)c(Cl)c1 (stereo not shown) [Example 3, N-(2-chloro-2′-(trifluoromethoxy)-[1,1′-biphenyl]-4-yl)-1-propionylpiperidine-2-carboxamide] | 88.2 | 98.6
CC(=O)N1CCCCC1C(=O)Nc1ccc(-c2ccccc2OC(F)(F)F)c(Cl)c1 (stereo not shown) [Example 1, 1-acetyl-N-(2-chloro-2′-(trifluoromethoxy)-[1,1′-biphenyl]-4-yl)piperidine-2-carboxamide] | 90.9 | 94
COC(=O)N1CCCCC1C(=O)Nc1ccc(-c2ccccc2OC(F)(F)F)c(Cl)c1 (stereo not shown) [Example 19, methyl 2-((2-chloro-2′-(trifluoromethoxy)-[1,1′-biphenyl]-4-yl)carbamoyl)piperidine-1-carboxylate] | 93.4 | 99.8
CN(C)C(=O)N1CCCCC1C(=O)Nc1ccc(-c2ccccc2OC(F)(F)F)c(Cl)c1 (stereo not shown) [Example 18, N^2-(2-chloro-2′-(trifluoromethoxy)-[1,1′-biphenyl]-4-yl)-N^1,N^1-dimethylpiperidine-1,2-dicarboxamide] | 95.9 | 90.8
CS(=O)(=O)NCCC(=O)N1CCCCC1C(=O)Nc1ccc(-c2ccccc2OC(F)(F)F)c(Cl)c1 (stereo not shown) [Example 32, N-(2-chloro-2′-(trifluoromethoxy)-[1,1′-biphenyl]-4-yl)-1-(3-(methylsulfonamide)propanoyl)piperidine-2-carboxamide] | 94.7 | 98.8
CC(=O)N1CC[C@@H](F)C[C@@H]1C(=O)Nc1ccc(-c2ccccc2OC(F)(F)F)c(Cl)c1 [Example 25, (2R,4R)-1-acetyl-N-(2-chloro-2′-(trifluoromethoxy)-[1,1′-biphenyl]-4-yl)-4-fluoropiperidine-2-carboxamide] | 94.2 | 99.4

Further lines, with some results ahead:

inhibition at 33 µM [2] [%] | SMILES | inhibition at 5 µM [1] [%]
99.3 | CC(C)Oc1ccccc1-c1ccc(NC(=O)C2CCCCN2C(=O)CN(C)S(C)(=O)=O)cc1Cl (stereo not shown) [Example 49, N-(2-chloro-2′-isopropoxy-[1,1′-biphenyl]-4-yl)-1-(2-(N-methylmethylsulfonamide)acetyl)piperidine-2-carboxamide] | 98.3
97.3 | O=C(Nc1ccc(-c2ccccc2OC(F)(F)F)c(Cl)c1)[C@H]1CCCCN1C(=O)Cn1ccnn1 [Example 64, (R)-1-(2-(1H-1,2,3-triazol-1-yl)acetyl)-N-(2-chloro-2′-(trifluoromethoxy)-[1,1′-biphenyl]-4-yl)piperidine-2-carboxamide] | 99.4
95.9 | COC(=O)CCCC(=O)N1CCCC[C@@H]1C(=O)Nc1ccc(-c2ccccc2OC(F)(F)F)c(Cl)c1 [Example 69, methyl (R)-5-(2-((2-chloro-2′-(trifluoromethoxy)-[1,1′-biphenyl]-4-yl)carbamoyl)piperidin-1-yl)-5-oxopentanoate] | 99.5
100 | O=C(Nc1ccc(-c2ccccc2OC(F)(F)F)c(Cl)c1)[C@H]1CCCCN1C(=O)CCn1cnnn1 [Example 58, (R)-1-(3-(1H-tetrazol-1-yl)propanoyl)-N-(2-chloro-2′-(trifluoromethoxy)-[1,1′-biphenyl]-4-yl)piperidine-2-carboxamide] | 99.7
102 | O=C(Nc1ccc(-c2ccccc2OC(F)(F)F)c(Cl)c1)C1CCCCN1C(=O)c1cn[nH]c1 (stereo not shown) [Example 48, N-(2-chloro-2′-(trifluoromethoxy)-[1,1′-biphenyl]-4-yl)-1-(1H-pyrazole-4-carbonyl)piperidine-2-carboxamide] | 99.4
95.5 | O=C(Nc1ccc(-c2ccccc2OC(F)(F)F)c(Cl)c1)[C@H]1CCCCN1C(=O)CCn1ccnc1 [Example 59, (R)-1-(3-(1H-imidazol-1-yl)propanoyl)-N-(2-chloro-2′-(trifluoromethoxy)-[1,1′-biphenyl]-4-yl)piperidine-2-carboxamide] | 99.8
97.1 | COC(=O)CCC(=O)N1CCCCC1C(=O)Nc1ccc(-c2ccccc2OC(F)(F)F)c(Cl)c1 (stereo not shown) [Example 44, methyl 4-(2-((2-chloro-2′-(trifluoromethoxy)-[1,1′-biphenyl]-4-yl)carbamoyl)piperidin-1-yl)-4-oxobutanoate] | 91.5
102 | O=C(Nc1ccc(-c2ccccc2OC(F)(F)F)c(Cl)c1)C1CCCCN1C(=O)Cc1ccco1 (stereo not shown) [Example 54, 1-(2-(furan-2-yl)acetyl)-N-(2-chloro-2′-(trifluoromethoxy)-[1,1′-biphenyl]-4-yl)piperidine-2-carboxamide] | 98.7
93.6 | Cc1ccn(CCC(=O)N2CCCC[C@@H]2C(=O)Nc2ccc(-c3ccccc3OC(F)(F)F)c(Cl)c2)n1 [Example 60, (R)-1-(3-(3-methyl-1H-pyrazol-1-yl)propanoyl)-N-(2-chloro-2′-(trifluoromethoxy)-[1,1′-biphenyl]-4-yl)piperidine-2-carboxamide] | 99.7
